Assay results from ChEMBL document CHEMBL4393743, “Anti-tumor activity evaluation of novel tubulin and HDAC dual-targeting inhibitors” (Bioorg Med Chem Lett, 2019).
Calls of active or inactive are those of the source. No cut-off for these calls is given here.

Assays:
[1] = biological target: Histone deacetylase (Homo sapiens) (UniProt Q13547+O15379+Q9UBN7+Q92769+Q9UQL6+Q8WUI4+Q9BY41+Q96DB2+P56524+Q9UKV0+Q969S8); settings: HeLa, at 1 µM
Description: Inhibition of HDAC in human HeLa cell nuclear extracts at 1 uM

A549 [2] = experiment: Antiproliferative activity against human A549 cells assessed as cell growth inhibition incubated for 72 hrs by MTT assay; assay type: functional, cell-based; settings: A549, 72 h
HeLa = experiment: Antiproliferative activity against human HeLa cells assessed as cell growth inhibition incubated for 72 hrs by MTT assay; assay type: functional, cell-based
SGC-7901 = experiment: Antiproliferative activity against human SGC7901 cells assessed as cell growth inhibition incubated for 72 hrs by MTT assay; assay type: functional, cell-based; settings: SGC-7901, 72 h
LoVo = experiment: Antiproliferative activity against human LoVo cells assessed as cell growth inhibition incubated for 72 hrs by MTT assay; assay type: functional, cell-based
NCI-H460 = experiment: Antiproliferative activity against human NCI-H460 cells assessed as cell growth inhibition incubated for 72 hrs by MTT assay; assay type: functional, cell-based; settings: NCI-H460, 72 h
MCF7 = experiment: Antiproliferative activity against human MCF7 cells assessed as cell growth inhibition incubated for 72 hrs by MTT assay; assay type: functional, cell-based; settings: MCF7, 72 h
MGC-803 = experiment: Antiproliferative activity against human MGC803 cells assessed as cell growth inhibition incubated for 72 hrs by MTT assay; assay type: functional, cell-based; settings: MGC-803, 72 h
BGC-823 = experiment: Antiproliferative activity against human BGC823 cells assessed as cell growth inhibition incubated for 72 hrs by MTT assay; assay type: functional, cell-based; settings: BGC-823, 72 h
MDA-MB-231 = experiment: Antiproliferative activity against human MDA-MB-231 cells assessed as cell growth inhibition incubated for 72 hrs by MTT assay; assay type: functional, cell-based; settings: MDA-MB-231, 72 h
NCI-H226 = experiment: Antiproliferative activity against human NCI-H226 cells assessed as cell growth inhibition incubated for 72 hrs by MTT assay; assay type: functional, cell-based; settings: NCI-H226, 72 h
HCT-116 = experiment: Antiproliferative activity against human HCT116 cells assessed as cell growth inhibition incubated for 72 hrs by MTT assay; assay type: functional, cell-based; settings: HCT-116, 72 h
Tubulin = experiment: Inhibition of tubulin polymerization (unknown origin) by spectrophotometric method; assay type: protein-complex assay, Homo sapiens
Histone deacetylase 1 = Histone deacetylase 1 (Homo sapiens, UniProt Q13547); experiment: Inhibition of HDAC1 (unknown origin) using Boc-Lys(Ac)-AMC as substrate incubated for 60 mins by fluorescence assay
Histone deacetylase = experiment: Inhibition of HDAC in human HeLA cell nuclear extracts; assay type: cell-based
[3] = biological target: T1, Protein deacetylase HDAC6 (Homo sapiens, UniProt Q9UBN7); experiment: Inhibition of HDAC6 (unknown origin) using Boc-Lys(Ac)-AMC as substrate incubated for 60 mins by fluorescence assay
T1 sequence (Q9UBN7 whole entry): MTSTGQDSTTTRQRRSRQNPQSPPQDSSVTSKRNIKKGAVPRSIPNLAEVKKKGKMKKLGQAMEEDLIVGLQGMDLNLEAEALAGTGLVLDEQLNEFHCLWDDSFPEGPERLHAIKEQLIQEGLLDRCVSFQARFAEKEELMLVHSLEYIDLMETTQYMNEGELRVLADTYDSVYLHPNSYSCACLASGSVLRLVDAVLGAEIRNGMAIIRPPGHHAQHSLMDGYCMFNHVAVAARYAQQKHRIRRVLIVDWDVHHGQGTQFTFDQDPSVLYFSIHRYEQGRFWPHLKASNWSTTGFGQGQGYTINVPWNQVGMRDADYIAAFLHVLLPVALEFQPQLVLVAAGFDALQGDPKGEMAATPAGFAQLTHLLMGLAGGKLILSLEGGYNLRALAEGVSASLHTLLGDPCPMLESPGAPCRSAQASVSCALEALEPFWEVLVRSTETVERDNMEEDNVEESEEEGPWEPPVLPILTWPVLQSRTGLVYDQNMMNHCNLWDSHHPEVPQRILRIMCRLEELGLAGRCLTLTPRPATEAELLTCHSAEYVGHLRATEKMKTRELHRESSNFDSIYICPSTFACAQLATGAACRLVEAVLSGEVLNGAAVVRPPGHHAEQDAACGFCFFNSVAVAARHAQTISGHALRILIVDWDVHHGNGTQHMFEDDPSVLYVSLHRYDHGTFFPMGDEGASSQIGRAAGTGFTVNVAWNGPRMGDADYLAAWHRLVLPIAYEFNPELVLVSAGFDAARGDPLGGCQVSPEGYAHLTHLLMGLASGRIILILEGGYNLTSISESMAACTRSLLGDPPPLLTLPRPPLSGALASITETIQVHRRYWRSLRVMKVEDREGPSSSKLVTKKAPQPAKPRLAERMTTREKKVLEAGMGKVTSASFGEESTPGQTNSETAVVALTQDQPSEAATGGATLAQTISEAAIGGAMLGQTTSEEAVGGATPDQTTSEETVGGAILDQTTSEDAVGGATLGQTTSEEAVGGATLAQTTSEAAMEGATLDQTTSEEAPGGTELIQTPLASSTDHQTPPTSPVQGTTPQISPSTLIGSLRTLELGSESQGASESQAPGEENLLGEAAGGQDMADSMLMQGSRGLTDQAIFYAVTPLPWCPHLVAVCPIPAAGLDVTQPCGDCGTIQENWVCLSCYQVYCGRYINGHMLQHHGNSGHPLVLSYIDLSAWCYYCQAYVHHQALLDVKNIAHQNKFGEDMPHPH

Histone deacetylase 8 = biological target: T2, Histone deacetylase 8 (Homo sapiens, UniProt Q9BY41); experiment: Inhibition of HDAC8 (unknown origin) using Boc-Lys(Ac)-AMC as substrate incubated for 60 mins by fluorescence assay
T2 sequence (Q9BY41 whole entry): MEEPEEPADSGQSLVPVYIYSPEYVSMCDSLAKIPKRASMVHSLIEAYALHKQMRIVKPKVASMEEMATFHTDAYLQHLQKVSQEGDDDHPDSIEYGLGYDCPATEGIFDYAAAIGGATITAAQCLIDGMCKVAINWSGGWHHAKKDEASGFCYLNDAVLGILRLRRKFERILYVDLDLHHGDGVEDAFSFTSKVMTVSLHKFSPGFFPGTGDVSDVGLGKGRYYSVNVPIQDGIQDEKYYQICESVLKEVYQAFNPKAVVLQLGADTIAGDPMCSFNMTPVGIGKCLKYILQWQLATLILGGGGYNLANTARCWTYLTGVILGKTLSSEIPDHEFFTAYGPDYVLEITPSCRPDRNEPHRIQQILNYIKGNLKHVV

A549 [4] = experiment: Induction of cell cycle arrest in human A549 cells assessed as accumulation at G0/G1 phase at 10 uM incubated for 36 hrs by propidium iodide staining based flow cytometry (reference value: 72.51%); assay type: functional
A549 [5] = experiment: Induction of apoptosis in human A549 cells assessed as necrotic cells at 10 uM incubated for 72 hrs by Annexin V-FITC/propidium iodide-staining based flow cytometric analysis (reference value: 2.76%); assay type: functional
A549 [6] = experiment: Antimigratory activity in human A549 cells at 5 to 10 uM incubated for 12 hrs in presence of mitomycin by inverted microscopic-based wound healing assay; assay type: functional, cell-based
A549 [7] = experiment: Induction of cell cycle arrest in human A549 cells assessed as accumulation at S phase at 10 uM incubated for 36 hrs by propidium iodide staining based flow cytometry (reference value: 16.66%); assay type: functional
A549 [8] = experiment: Induction of cell cycle arrest in human A549 cells assessed as accumulation at G2/M phase at 10 uM incubated for 36 hrs by propidium iodide staining based flow cytometry (reference value: 10.83%); assay type: functional
A549 [9] = experiment: Induction of apoptosis in human A549 cells assessed as early apoptotic cells at 10 uM incubated for 72 hrs by Annexin V-FITC/propidium iodide-staining based flow cytometric analysis (reference value: 1.8%); assay type: functional
A549 [10] = experiment: Induction of apoptosis in human A549 cells assessed as late apoptotic cells at 10 uM incubated for 72 hrs by Annexin V-FITC/propidium iodide-staining based flow cytometric analysis (reference value: 5.69%); assay type: functional
A549 [11] = experiment: Induction of apoptosis in human A549 cells assessed as live cells at 10 uM incubated for 72 hrs by Annexin V-FITC/propidium iodide-staining based flow cytometric analysis (reference value: 89.8%); assay type: functional

Histone deacetylase 1, sequence (Q13547 whole entry): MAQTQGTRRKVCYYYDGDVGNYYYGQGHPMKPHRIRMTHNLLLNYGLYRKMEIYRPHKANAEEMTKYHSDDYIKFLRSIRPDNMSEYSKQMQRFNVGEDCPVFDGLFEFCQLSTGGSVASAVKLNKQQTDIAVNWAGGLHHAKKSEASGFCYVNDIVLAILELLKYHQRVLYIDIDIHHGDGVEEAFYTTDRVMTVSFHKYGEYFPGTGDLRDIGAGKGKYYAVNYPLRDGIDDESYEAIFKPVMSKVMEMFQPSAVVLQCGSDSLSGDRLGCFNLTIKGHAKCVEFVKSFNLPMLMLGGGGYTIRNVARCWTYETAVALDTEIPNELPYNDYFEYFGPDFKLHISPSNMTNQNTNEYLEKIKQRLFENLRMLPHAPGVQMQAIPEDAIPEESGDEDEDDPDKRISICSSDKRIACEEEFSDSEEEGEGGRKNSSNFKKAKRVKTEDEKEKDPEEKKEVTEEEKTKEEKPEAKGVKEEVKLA

Row | SMILES | inhibition [1] [%] | IC50 (A549 [2]) [µM] | IC50 (HeLa) [µM] | IC50 (SGC-7901) [µM] | IC50 (LoVo) [µM] | also measured
1 | COc1ccc(/C=C(\C)C(=O)c2cc(OC)c(OC)c(OC)c2)cc1OCCCCC(=O)NO | 35.4 | 1.45 | 3.15 | 13.9 |  | 
2 | COc1ccc(/C=C(\C)C(=O)c2cc(OC)c(OC)c(OC)c2)cc1O |  | 1.51 | > 50 | 2.06 |  | 
3 | COc1ccc(/C=C/C(=O)c2cc(OC)c(OC)c(OC)c2)cc1O |  | 1.02 | 0.44 | 1.13 | 3.99 | IC50 (NCI-H460): 4.98 µM; IC50 (MCF7): 8.6 µM; IC50 (MGC-803): 8.33 µM; IC50 (BGC-823): 7.58 µM; IC50 (MDA-MB-231): 4.28 µM; IC50 (NCI-H226): 4.38 µM; IC50 (HCT-116): 2.85 µM; IC50 (Tubulin): 4 µM
4 | COc1ccc(/C=C/C(=O)c2cc(OC)c(OC)c(OC)c2)cc1OCCCCCCC(=O)NO | 87.3 | 7.15 | 21.4 | 24.5 | 12.6 | IC50 (NCI-H460): 13.2 µM; IC50 (Histone deacetylase 1): 0.0363 µM; IC50 (MCF7): 17.9 µM; IC50 (Histone deacetylase): 0.1326 µM; IC50 (MGC-803): 10.1 µM; IC50 [3]: 0.0046 µM; IC50 (BGC-823): 11.5 µM; IC50 (MDA-MB-231): 15.2 µM; IC50 (NCI-H226): 15.7 µM; IC50 (HCT-116): 29.9 µM; IC50 (Tubulin): 10.4 µM; IC50 (Histone deacetylase 8): 3.88 µM
5 | COc1ccc(/C=C/C(=O)c2cc(OC)c(OC)c(OC)c2)cc1OCCCCCC(=O)NO | 78.5 | 9.4 | 24.6 | 25.2 |  | 
6 | COc1ccc(/C=C(\C)C(=O)c2cc(OC)c(OC)c(OC)c2)cc1OCCCCCCCC(=O)NO | 92.3 | 20 | 19.4 | 28.3 | 9.93 | IC50 (NCI-H460): 20.2 µM; IC50 (Histone deacetylase 1): 0.0152 µM; IC50 (MCF7): 12 µM; IC50 (Histone deacetylase): 0.0715 µM; IC50 (MGC-803): 16.4 µM; IC50 [3]: 0.0136 µM; IC50 (BGC-823): 15.2 µM; IC50 (MDA-MB-231): 11.8 µM; IC50 (NCI-H226): 23.2 µM; IC50 (HCT-116): 10.7 µM; IC50 (Tubulin): 5 µM; IC50 (Histone deacetylase 8): 4.91 µM
7 | COc1ccc(/C=C(\C)C(=O)c2cc(OC)c(OC)c(OC)c2)cc1OCCCCCC(=O)NO | 74.8 | 13.6 | 10.4 | 14 |  | 
8 | O=C(CCCCCCC(=O)Nc1ccccc1)NO [VORINOSTAT] |  |  |  | 1.03 | 2.15 | Activity (A549 [4]): 9.61%; Activity (A549 [5]): 8.58%; Activity (A549 [6]): Active; Activity (A549 [7]): 39.53%; Activity (A549 [8]): 50.86%; Activity (A549 [9]): 7.17%; Activity (A549 [10]): 24%; Activity (A549 [11]): 60.3%
9 | COc1ccc(/C=C/C(=O)c2cc(OC)c(OC)c(OC)c2)cc1OCCCCC(=O)NO | 32.9 | 14.3 | 25.9 | > 50 |  | 
10 | COc1ccc(/C=C(\C)C(=O)c2cc(OC)c(OC)c(OC)c2)cc1OCCCCCCC(=O)NO | 86 | 11.5 | 16.6 | 20 |  | 
11 | COc1ccc(/C=C/C(=O)c2cc(OC)c(OC)c(OC)c2)cc1OCCCC(=O)NO | 21.8 | 12.2 | 13.3 | 17.4 |  | 
12 | COc1ccc(/C=C/C(=O)c2cc(OC)c(OC)c(OC)c2)cc1OCCCCCCCC(=O)NO | 84.8 | 13.3 | 37.2 | > 50 |  | 
